One molecule from article PMC4747340, “A new class of small molecule estrogen receptor-alpha antagonists that overcome anti-estrogen resistance” (Oncotarget, 2015) can be followed below.

Assay type in all cases: cell-based
One experiment deals with T1, ER Glu353Ala (Homo sapiens, UniProt P03372, E353A).
T1 construct: expressed in transfected cells; host or cells: MDA-MB-231
Nature of the experiment: ER mutation analysis, ERE-TK-Luc reporter in transfected MDA-MB-231 cells. To be noted: MDA-MB-231 transfected with mutant ER, E2 10 nM, 24 hr. From the text: (§1) B., C. Panels B and C show a comparison of the ER interaction of one of our original series of compounds (A7) (B) and one new compounds (48693-K/1) (C). ER is represented by gray ribbon and its residues interacting with the compounds are drawn with wireframe and labeled. […] The hydrogen bond interaction with ARG 394 is shown in green line. […] The cells were harvested for luciferase assays. Luciferase values are expressed as a percent of the +E2 vehicle control and are means ± SEMs of four wells. The data shown in panels D to G are representative of three independent experiments.
(§2) Subconfluent cells in 24-well dishes were transfected overnight with 0.25 μg of each indicated vector plus the ERE-TK-Luc reporter in serum-free DMEM containing Lipofectamine2000 (Life Technologies, Washington, DC). Total transfected DNA was kept constant by addition of control vector. The cells were washed, incubated in phenol red-free DMEM containing 5% charcoal-stripped serum (obtained from the Tissue Culture Shared Resource) (0.2 ml/well) ± E2 (10 nM) ± the indicated compound for 24-hr, and harvested for luciferase assays. For each assay condition was tested in quadrupicate. To monitor the transfection efficiency, cultures were co-transfected with plasmid pRSV-β-gal (Promega, Madison, WI) to visualize transfected cells by X-gal staining.

Another experiment deals with T2, ER Ile326Ala (Homo sapiens, UniProt P03372, I326A).
T2 construct: expressed in transfected cells; host or cells: MDA-MB-231
The description is as above. To be noted: MDA-MB-231 transfected with mutant ER, E2 10 nM, 24 hr.
From the text: as §1, §2

The target in a further experiment is T3, Wild-type ER (Homo sapiens, UniProt P03372).
T3 construct: expressed in transfected cells; host or cells: MDA-MB-231
Described as above. The conditions noted are these: MDA-MB-231 transfected with wtER, E2 10 nM, 24 hr.
From the text: as §1, §2

The target in another experiment is T4, ER Pro324Ala (Homo sapiens, UniProt P03372, P324A).
T4 construct: expressed in transfected cells; host or cells: MDA-MB-231
The description is as above. The conditions noted are these: MDA-MB-231 transfected with mutant ER, E2 10 nM, 24 hr.
From the text: as §1, §2

The target of another experiment is T5, ER-β (Homo sapiens, UniProt Q92731).
T5 construct: host or cells: DU-145
The experiment in a line: E2-stimulated ER-β activity, ERE-TK-Luc reporter in transfected DU-145 cells. The method, then: Figure 12 Compound 35446 inhibits the activity of ER-β Subconfluent proliferating DU-145 cells in 24-well dishes were transfected overnight with the ER=α or ER=β expression vector plus the ERE-TK-Luc reporter plasmid (0.25 μg per plasmid/well), washed, and allowed to recover for several hours in fresh culture medium. The cells were then post-incubated for 24 hr to allow gene expression, after which they were treated ± E2 (10 nM) and ± compound 35446 (20 μM) (or compound B2 as a negative control) for 24 hr and assayed for luciferase activity. Luciferase activity is expressed relative to the no E2 control. Values are means ± SEMs of four replicate wells. The data shown in each panel are representative of three independent experiments.
To determine the effect of compound on ER-β activity, an ER- β expression plasmid (cat. no.: 35562, Addgene, Cambridge) was co-transfected into ER- DU-145 human prostate carcinoma cells along with the ERE-TK-Luc reporter plasmid (0.25 μg of each plasmid) and the cells were incubated overnight to allow gene expression. The cells were then treated ± E2 (10 nM) and ± the indicated compound for 24-hr, and harvested for luciferase assays as above.

T5 sequence (Q92731 whole entry): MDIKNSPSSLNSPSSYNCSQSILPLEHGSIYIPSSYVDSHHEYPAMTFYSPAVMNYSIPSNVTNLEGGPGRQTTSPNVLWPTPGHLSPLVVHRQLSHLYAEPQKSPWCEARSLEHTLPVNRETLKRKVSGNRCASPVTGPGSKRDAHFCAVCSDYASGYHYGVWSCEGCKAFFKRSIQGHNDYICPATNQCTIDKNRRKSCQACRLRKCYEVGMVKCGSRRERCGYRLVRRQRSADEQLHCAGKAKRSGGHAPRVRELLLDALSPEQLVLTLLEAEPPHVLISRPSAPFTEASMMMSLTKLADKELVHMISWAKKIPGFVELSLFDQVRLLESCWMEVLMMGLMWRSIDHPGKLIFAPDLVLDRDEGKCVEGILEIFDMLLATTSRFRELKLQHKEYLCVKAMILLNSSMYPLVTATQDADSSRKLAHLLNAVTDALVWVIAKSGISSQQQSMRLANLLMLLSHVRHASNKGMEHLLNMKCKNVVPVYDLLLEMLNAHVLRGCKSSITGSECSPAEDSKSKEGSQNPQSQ
T2 sequence (P03372 whole entry I326A): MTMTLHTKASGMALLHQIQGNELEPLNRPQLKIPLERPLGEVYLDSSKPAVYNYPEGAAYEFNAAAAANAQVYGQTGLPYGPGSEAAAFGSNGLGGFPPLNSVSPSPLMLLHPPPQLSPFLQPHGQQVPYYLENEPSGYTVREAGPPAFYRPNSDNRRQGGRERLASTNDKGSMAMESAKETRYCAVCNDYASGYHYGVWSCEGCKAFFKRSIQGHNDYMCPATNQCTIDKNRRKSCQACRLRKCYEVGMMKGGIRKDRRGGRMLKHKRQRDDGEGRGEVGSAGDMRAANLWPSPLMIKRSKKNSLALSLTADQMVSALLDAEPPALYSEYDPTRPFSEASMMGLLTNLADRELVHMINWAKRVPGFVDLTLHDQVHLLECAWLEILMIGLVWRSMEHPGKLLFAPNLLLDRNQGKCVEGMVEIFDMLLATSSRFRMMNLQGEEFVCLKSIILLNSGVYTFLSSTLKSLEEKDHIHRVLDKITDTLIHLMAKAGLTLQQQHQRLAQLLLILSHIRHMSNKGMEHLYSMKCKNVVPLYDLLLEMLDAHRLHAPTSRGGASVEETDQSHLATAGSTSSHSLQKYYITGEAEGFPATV
T1 sequence (P03372 whole entry E353A): as the sequence (P03372 whole entry I326A) above, with A326I, E353A counted along it
T3 sequence (P03372 whole entry): as the sequence (P03372 whole entry I326A) above, with A326I counted along it
T4 sequence (P03372 whole entry P324A): as the sequence (P03372 whole entry I326A) above, with P324A, A326I counted along it

As for `O=C(CC(c1ccccc1)N1CCCCC1)c1ccccc1` (stereo not drawn) [35446-L/1, 1,3-diphenyl-3-(piperidin-1-yl)propan-1-one], the IC50 (in general, the midpoint of a concentration-inhibition curve) is over 10 µM on ER Glu353Ala; 4 µM against ER Ile326Ala; 0.8 µM on Wild-type ER; over 15 µM against ER Pro324Ala; 2 µM at ER-β (DU-145 transfected with ER-β, E2 10 nM, 24 hr, read-out: IC50 for inhibition of ER-β activity). For the same molecule, the inhibition (as a rule, the relative decrease from the control value, in per cent) at 20 µM at ER-β (DU-145, read-out: inhibition of E2-stimulated ER-β activity) is about 67%.
